Residues, ends and D or L forms follow the SMILES beside them. No end group written: not given here. *: point of attachment. Biotin = O=C1N[C@H]2[C@H](CS[C@H]2CCCCC(=O)*)N1
The molecules below were run against T1, soluble ectodomain of sortilin-6his (Homo sapiens, UniProt Q99523, V650M) (assay: MST binding to soluble ectodomain of sortilin-6his). Settings: Table 1; biotin-linker-peptide bifunctional compounds; MST; read-out: KD score, binding to sortilin (Kd).
T1 construct: the soluble ectodomain of sortilin-6his is measured by microscale thermophoresis (MST)
Method: At this point the plate was sealed with adhesive strip and placed on an Eppendorf thermomixer to shake at 600 rpm for 3 min before spinning on a Fisherbrand plate-spinner for 15 seconds and further incubation 1 hrs at 19° C. MST was measured on a Monolith NT. Automated (Nanotemper) in standard-treated capillaries at 5% LED-power and high MST-power. Dose-response was extracted from the raw thermographs at 20 sec hot-time and the dissociation constant was estimated by sigmoidal curve fitting in MO. Affinity analysis program (Nanotemper). All experiments were run in duplicates.

Molecule | Kd [nM]
CC(C)C[C@H](NC(=O)[C@H](CC(C)C)NC(=O)[C@H](CCC(N)=O)NC(=O)[C@H](CCCNC(=N)N)NC(=O)CNC(=O)CNC(=O)CCCC[C@@H]1SC[C@@H]2NC(=O)N[C@@H]21)C(=O)O [compound 153] (Biotin-GGRQLL-OH) | < 100
CC(C)C[C@H](NC(=O)[C@H](CC(C)C)NC(=O)[C@H](CCC(N)=O)NC(=O)[C@H](Cc1ccccc1)NC(=O)CNC(=O)CNC(=O)[C@H](CO)NC(=O)CNC(=O)CNC(=O)CCCC[C@@H]1SC[C@@H]2NC(=O)N[C@@H]21)C(=O)O [compound 144] (Biotin-GGSGGFQLL-OH) | < 100

Same assay, conditions: Table 3; monofunctional peptides; MST; read-out: KD score, binding to sortilin (Kd)

Molecule | Kd [nM]
CC[C@H](C)[C@H](N)C(=O)N[C@@H](CCC(N)=O)C(=O)N[C@@H](CC(C)C)C(=O)N[C@@H](CC(C)C)C(=O)O [compound 42] (H-IQLL-OH; N-terminus assumed) | 250 to 2500
REAPRWDAPLRDPALRYYL-OH [compound 61] | 25 to 250
TGGFM-OH [compound 62] | > 2500
CC(C)C[C@H](NC(=O)[C@H](Cc1ccc(O)cc1)NC(=O)[C@H](CCC(N)=O)NC(=O)[C@@H](N)CCCNC(=N)N)C(=O)O [compound 39] (H-RQYL-OH) | 250 to 2500
CC(C)C[C@H](NC(=O)[C@H](CCCNC(=N)N)NC(=O)[C@H](C)NC(=O)[C@H](C)N)C(=O)O [compound 196, AARL-OH] (H-AARL-OH) | 250 to 2500
APLRDPAPRQLL-OH [compound 57] | 25 to 250
CC(C)C[C@H](NC(=O)[C@H](CC(C)C)NC(=O)[C@H](CCC(N)=O)NC(=O)[C@@H](N)Cc1ccccc1)C(=O)O [compound 23, FQLL-OH] (H-FQLL-OH) | 25 to 250
CC(C)C[C@H](NC(=O)[C@H](Cc1ccc(O)cc1)NC(=O)[C@H](Cc1ccc(O)cc1)NC(=O)[C@@H](N)Cc1ccccc1)C(=O)O [compound 43] (H-FYYL-OH; N-terminus assumed) | > 2500
CC(C)C[C@H](NC(=O)[C@H](Cc1ccc(O)cc1)NC(=O)[C@H](Cc1ccc(O)cc1)NC(=O)[C@@H](N)CCCNC(=N)N)C(=O)O [compound 36] (H-RYYL-OH) | 25 to 250

Same assay, conditions: Table 4; small molecule bifunctional compounds; MST

Molecule | KD score, binding to sortilin (Kd)
CC(C)(C)CC[C@H](NC(=O)COc1cccc(Oc2ccc(C(=O)NCCOCCOCCOCCOCc3cn(CCCCCOc4ncc(-c5ccc6c(n5)N(Cc5cccnc5C#N)C(C)(C)C6=O)cn4)nn3)cn2)c1)C(=O)O [BF075, (2S)-2-[[2-[3-[[5-[2-[2-[2-[2-[[1-[5-[5-[1-[(2-cyano-3-pyridyl)methyl]-2,2-dimethyl-3-oxo-pyrrolo[2,3-b]pyridin-6-yl]pyrimidin-2-yl]oxypentyl]triazol-4-yl]methoxy]ethoxy]ethoxy]ethoxy]ethylcarbamoyl]-2-pyridyl]oxy]phenoxy]acetyl]amino]-5,5-dimethyl-hexanoic acid] | 0

Same assay, conditions: Table 4; small molecule bifunctional compounds; MST; read-out: KD score, binding to sortilin (Kd)

Molecule | Kd [nM]
C[C@@H]1CN(c2ncc(-c3ccc4c(n3)N(Cc3cccnc3C#N)C(C)(C)C4=O)cn2)CCN1C(=O)Cn1cc(COCCOCCOCCOCCOCCOc2cccc(Oc3ccc(C(=O)N[C@@H](CCC(C)(C)C)C(=O)O)cn3)c2)nn1 [BF098, (2S)-2-[[6-[3-[2-[2-[2-[2-[2-[[1-[2-[(2R)-4-[5-[1-[(2-cyano-3-pyridyl)methyl]-2,2-dimethyl-3-oxo-pyrrolo[2,3-b]pyridin-6-yl]pyrimidin-2-yl]-2-methyl-piperazin-1-yl]-2-oxo-ethyl]triazol-4-yl]methoxy]ethoxy]ethoxy]ethoxy]ethoxy]ethoxy]phenoxy]pyridine-3-carbonyl]amino]-5,5-dimethyl-hexanoic acid] | < 1
C[C@@H]1CN(c2ncc(-c3ccc4c(n3)N(Cc3cccnc3C#N)C(C)(C)C4=O)cn2)CCN1C(=O)Cn1cc(COCCOCCOC2CN(CCOCCOc3cccc(Oc4ccc(C(=O)N[C@@H](CCC(C)(C)C)C(=O)O)cn4)c3)C2)nn1 [BF114, (2S)-2-[[6-[3-[2-[2-[3-[2-[2-[[1-[2-[(2R)-4-[5-[1-[(2-cyano-3-pyridyl)methyl]-2,2-dimethyl-3-oxo-pyrrolo[2,3-b]pyridin-6-yl]pyrimidin-2-yl]-2-methyl-piperazin-1-yl]-2-oxo-ethyl]triazol-4-yl]methoxy]ethoxy]ethoxy]azetidin-1-yl]ethoxy]ethoxy]phenoxy]pyridine-3-carbonyl]amino]-5,5-dimethyl-hexanoic acid] | < 1
CC(C)(C)CC[C@H](NC(=O)c1ccc(Oc2cccc(C(=O)NCCOCCOCCOCCOCc3ccc(-c4cccc5ccncc45)c(OCCc4ccc(-c5cccc6ccncc56)cc4)c3)c2)nc1)C(=O)O [BF035, (2S)-2-[[6-[3-[2-[2-[2-[2-[[4-(8-isoquinolyl)-3-[2-[4-(8-isoquinolyl)phenyl]ethoxy]phenyl]methoxy]ethoxy]ethoxy]ethoxy]ethylcarbamoyl]phenoxy]pyridine-3-carbonyl]amino]-5,5-dimethyl-hexanoic acid] | 1 to 10
CC(C)(C)CC[C@H](NC(=O)c1ccc(Oc2cccc(C(=O)NCCOCCOCCOCCOCCOCCOc3ncc(-c4ccc5c(n4)N(Cc4cccnc4C#N)C(C)(C)C5=O)cn3)c2)nc1)C(=O)O [BF059] | < 1
C[C@@H]1CN(c2ncc(-c3ccc4c(n3)N(Cc3cccnc3C#N)C(C)(C)C4=O)cn2)CCN1C(=O)COCCCCNC(=O)c1cccc(Oc2ccc(C(=O)N[C@@H](CCC(C)(C)C)C(=O)O)cn2)c1 [BF045] | 1 to 10
CC(C)(C)CC[C@H](NC(=O)c1ccc(Oc2cccc(OCCOCCOCCOCCOCCOCCOCCOCCNc3ccc([N+](=O)[O-])cc3[N+](=O)[O-])c2)nc1)C(=O)O [BF012, (2S)-2-[[6-[3-[2-[2-[2-[2-[2-[2-[2-[2-(2,4-dinitroanilino)ethoxy]ethoxy]ethoxy]ethoxy]ethoxy]ethoxy]ethoxy]ethoxy]phenoxy]pyridine-3-carbonyl]amino]-5,5-dimethyl-hexanoic acid] | 1 to 10
CC(C)(C)CC[C@H](NC(=O)c1ccc(Oc2cccc3c(C(=O)NCCCNC(=O)CCOCCOCCNc4ccc([N+](=O)[O-])cc4[N+](=O)[O-])cccc23)nc1)C(=O)O [BF009] | 1 to 10
CC(C)(C)CC[C@H](NC(=O)c1ccc(Oc2cccc(OCC(=O)NCCOCCOCCOCCOCCOCCOc3ncc(-c4ccc5c(n4)N(Cc4cccnc4C#N)C(C)(C)C5=O)cn3)c2)nc1)C(=O)O [BF143, (S)-2-(6-(3-((20-((5-(1-((2-cyanopyridin-3-yl)methyl)-2,2-dimethyl-3-oxo-2,3-dihydro-1H-pyrrolo[2,3-b]pyridin-6-yl)pyrimidin-2-yl)oxy)-2-oxo-6,9, 12, 15, 18-pentaoxa-3-azaicosyl)oxy)phenoxy)nicotinamido)-5,5-dimethylhexanoic acid] | 1 to 10
CC(C)(C)CC[C@H](NC(=O)c1ccc(Oc2cccc(C(=O)NCCOCCNc3ncc(-c4ccc5c(n4)N(Cc4cccnc4C#N)C(C)(C)C5=O)cn3)c2)nc1)C(=O)O [BF060, (2S)-2-[[6-[3-[2-[2-[[5-[1-[(2-cyano-3-pyridyl)methyl]-2,2-dimethyl-3-oxo-pyrrolo[2,3-b]pyridin-6-yl]pyrimidin-2-yl]amino]ethoxy]ethylcarbamoyl]phenoxy]pyridine-3-carbonyl]amino]-5,5-dimethyl-hexanoic acid] | 1 to 10
Cc1nc2cc(F)c(-c3cnc(OCCCCCn4cc(COCCOCCOCCOCCNC(=O)COc5cccc(Oc6ccc(C(=O)N[C@@H](CCC(C)(C)C)C(=O)O)cn6)c5)nn4)nc3)nc2c(N[C@H](C)c2cc(C#N)ccc2F)c1Cl [BF084, (2S)-2-[[6-[3-[2-[2-[2-[2-[2-[[1-[5-[5-[7-chloro-8-[[(1R)-1-(5-cyano-2-fluoro-phenyl)ethyl]amino]-3-fluoro-6-methyl-1,5-naphthyridin-2-yl]pyrimidin-2-yl]oxypentyl]triazol-4-yl]methoxy]ethoxy]ethoxy]ethoxy]ethylamino]-2-oxo-ethoxy]phenoxy]pyridine-3-carbonyl]amino]-5,5-dimethyl-hexanoic acid] | 1 to 10
CC(C)(C)CC[C@H](NC(=O)COc1cccc(Oc2ccc(C(=O)NCCOCCNc3ncc(-c4ccc5c(n4)N(Cc4cccnc4C#N)C(C)(C)C5=O)cn3)cn2)c1)C(=O)O [BF072, (2S)-2-[[2-[3-[[5-[2-[2-[[5-[1-[(2-cyano-3-pyridyl)methyl]-2,2-dimethyl-3-oxo-pyrrolo[2,3-b]pyridin-6-yl]pyrimidin-2-yl]amino]ethoxy]ethylcarbamoyl]-2-pyridyl]oxy]phenoxy]acetyl]amino]-5,5-dimethyl-hexanoic acid] | < 1
C[C@@H]1CN(c2ncc(-c3ccc4c(n3)N(Cc3cccnc3C#N)C(C)(C)C4=O)cn2)CCN1C(=O)Cn1cc(COCCOCCOCCOCCOc2cccc(Oc3ccc(C(=O)N[C@@H](CCC(C)(C)C)C(=O)O)cn3)c2)nn1 [BF101, (2S)-2-[[6-[3-[2-[2-[2-[2-[[1-[2-[(2R)-4-[5-[1-[(2-cyano-3-pyridyl)methyl]-2,2-dimethyl-3-oxo-pyrrolo[2,3-b]pyridin-6-yl]pyrimidin-2-yl]-2-methyl-piperazin-1-yl]-2-oxo-ethyl]triazol-4-yl]methoxy]ethoxy]ethoxy]ethoxy]ethoxy]phenoxy]pyridine-3-carbonyl]amino]-5,5-dimethyl-hexanoic acid] | 1 to 10
C[C@@H]1CN(c2ncc(-c3ccc4c(n3)N(Cc3cccnc3C#N)C(C)(C)C4=O)cn2)CCN1C(=O)COCCCCNC(=O)COc1cccc(Oc2ccc(C(=O)N[C@@H](CCC(C)(C)C)C(=O)O)cn2)c1 [BF048] | 1 to 10
CC(C)(C)CC[C@H](NC(=O)c1ccc(Oc2cccc(C(=O)NCCOCCOCCOCCOCCOCc3ccc(-c4cccc5ccncc45)c(OCCc4ccc(-c5cccc6ccncc56)cc4)c3)c2)nc1)C(=O)O [BF037, (2S)-2-[[6-[3-[2-[2-[2-[2-[2-[[4-(8-isoquinolyl)-3-[2-[4-(8-isoquinolyl)phenyl]ethoxy]phenyl]methoxy]ethoxy]ethoxy]ethoxy]ethoxy]ethylcarbamoyl]phenoxy]pyridine-3-carbonyl]amino]-5,5-dimethyl-hexanoic acid] | < 1

Source: US20250345446A1 (Draupnir Bio ApS, priority 2022, published 2025)
